Measured values: patent publication US5369095A, “Compositions and method comprising substituted glycosides as mucus membrane permeation enhancers” (priority 1993, dated 1994)

What was measured:
[1] = Penetration of para-aminoclonidine through the cornea: amount in aqueous humor after topical dosing, liquid scintillation counting; assay type: in vivo, New Zealand albino rabbits; conditions: 60 minutes; 0.125% para-amino-clonidine with 0.05% dodecyl maltoside versus drug without dodecyl maltoside; 30 ul topical
Protocol: Nine New Zealand albino rabbits were selected for evaluation of the penetration through the cornea of the para-amino-clonidine formulation set forth above. All rabbits received 30 ul of the 0.125% para-amino-clonidinetopically in both eyes. Three rabbits were sacrificed at 20 minutes from dosing and aqueous humor was withdrawn from their eyes. The aqueous humor as assayed by liquid scintillation counting to determine the amount of para-amino-clonidine in the aqueous humor. The same procedure was done on 3 different rabbits at 60 minutes from dosing and on another 3 rabbits, 120 minutes from dosing. […] Aqueous humor was withdrawn and assayed as explained above.
Nine New Zealand albino rabbits were selected for evaluation of the penetration through the cornea of the para-amino-clonidine formulation set forth above. All rabbits received 30 ul of the 0.125% para-amino-clonidinetopically in both eyes. Three rabbits were sacrificed at 20 minutes from dosing and their aqueous humor was withdrawn from their eyes. The aqueous humor was assayed by liquid scintillation counting to determine the amount of para-amino-clonidine in the aqueous humor. The same procedure was done on three different rabbits at 60 minutes from dosing and on another three rabbits, 120 minutes from dosing. […] Aqueous humor was withdrawn and assayed as explained above.

[2] = Apparent permeability coefficient through excised cornea mounted between diffusion cells; assay type: in vitro ADME, Albino rabbits
Protocol: Albino rabbits were sacrificed, and within 15 minutes, the corneas were mounted and clamped between diffusion cells according to the published procedure by Schoenwald et al. (J. Pharm. Sci. 72, 1266, 1983). 7 ml of bicarbonated Ringer's solution containing reduced glutathione was added to the endothelial side to serve as the receiver solution. An equal volume of the same solution containing Atenolol, a β-blocker, with or without dodecyl maltoside (DDM) was added to the epithelial side to serve as the donor solution. The apparent permeability coefficient was calculated from the average cumulative amount of drug penetrating through the cornea over time according to Schoenwald.
The procedure in Example 8 was repeated with the following para-amino clonidine formulations.
The procedure of Example 8 was repeated with Atenolol except dodecyl maltoside was substituted with 0.1% amount by weight of each of the following substituted glycosides of this invention and the following results were obtained.

Compound	increase in the amount of para-aminoclonidine found in the aqueous humor [1]	permeation for para-amino clonidine as compared to control [2]	Permeability Coefficient ([2]; rabbit) [cm/sec × 10^-6]
CCCCCCCCCCCCO[C@@H]1O[C@H](CO)[C@@H](O[C@H]2O[C@H](CO)[C@@H](O)[C@H](O)[C@H]2O)[C@H](O)[C@H]1O [dodecyl maltoside, Dodecyl maltoside]	four	superior permeation	
Lysophosphatidyl Inositol			14.0
